# From patent publication US8658666B2, “Substituted imidazoquinolines and imidazonaphthyridines” (3M Innovative Properties Company, priority 2005, dated 2014)
structure (smiles),measurement,value
"COCc1nc2c(N)nc3cc(CCC(=O)N4CCS(=O)(=O)CC4)ccc3c2n1CC(C)(C)O [Example 107, 1-[4-Amino-7-[3-(1,1-dioxidothiomorpholin-4-yl)-3-oxopropyl]-2-(methoxymethyl)-1H-imidazo[4,5-c]quinolin-1-yl]-2-methylpropan-2-ol]",melting point,190 to 192 °C
"COCc1nc2c(N)nc3cc(CCC(=O)N(C)C)ccc3c2n1CC(C)(C)O [Example 108, 3-[4-Amino-1-(2-hydroxy-2-methylpropyl)-2-(methoxymethyl)-1H-imidazo[4,5-c]quinolin-7-yl]-N,N-dimethylpropanamide]",melting point,142 to 145 °C
"COCc1nc2c(N)nc3cc(CCCNS(C)(=O)=O)ccc3c2n1CC(C)(C)O [Example 109, N-{3-[4-Amino-1-(2-hydroxy-2-methylpropyl)-2-(methoxymethyl)-1H-imidazo[4,5-c]quinolin-7-yl]propyl}methanesulfonamide]",melting point,205 to 207 °C
"COCc1nc2c(N)nc3cc(CCC#N)ccc3c2n1CC(C)(C)O [Example 110, 3-[4-Amino-1-(2-hydroxy-2-methylpropyl)-2-(methoxymethyl)-1H-imidazo[4,5-c]quinolin-7-yl]propanenitrile]",melting point,191 to 193 °C
"CN(C)C(=O)CCc1ccc2c(c1)nc(N)c1nc(CO)n(CC(C)(C)O)c12 [Example 111, 3-[4-Amino-2-(hydroxymethyl)-1-(2-hydroxy-2-methylpropyl)-1H-imidazo[4,5-c]quinolin-7-yl]-N,N-dimethylpropanamide]",melting point,228 to 230 °C
"CC(C)(O)Cn1c(CO)nc2c(N)nc3cc(CCC(=O)N4CCOCC4)ccc3c21 [Example 112, 1-[4-Amino-2-(hydroxymethyl)-7-(3-morpholin-4-yl-3-oxopropyl)-1H-imidazo[4,5-c]quinolin-1-yl]-2-methylpropan-2-ol]",melting point,223 to 225 °C
"COCc1nc2c(N)nc3cc(CCC(N)=O)ccc3c2n1CC(C)(C)O [Example 113, 3-[4-Amino-1-(2-hydroxy-2-methylpropyl)-2-(methoxymethyl)-1H-imidazo[4,5-c]quinolin-7-yl]propanamide]",melting point,228 to 230 °C
"CC(C)(O)Cn1c(CO)nc2c(N)nc3cc(CCCNS(C)(=O)=O)ccc3c21 [Example 116, N-{3-[4-Amino-2-(hydroxymethyl)-1-(2-hydroxy-2-methylpropyl)-1H-imidazo[4,5-c]quinolin-7-yl]propyl}methanesulfonamide]",melting point,202 to 205 °C
"CCOCc1nc2c(N)nc3ccc(NC(=O)C(C)C)cc3c2n1CC(C)(C)O [Example 117, N-[4-Amino-2-(ethoxymethyl)-1-(2-hydroxy-2-methylpropyl)-1H-imidazo[4,5-c]quinolin-8-yl]-2-methylpropanamide]",melting point,259 to 261 °C
"CCc1nc2c(N)nc3cc(CCNS(C)(=O)=O)ccc3c2n1CC(C)(C)O [Example 118, N-{2-[4-Amino-2-ethyl-1-(2-hydroxy-2-methylpropyl)-1H-imidazo[4,5-c]quinolin-7-yl]ethyl}methanesulfonamide]",melting point,149 to 152 °C
CCc1nc2c(N)nc3cc(CCS(C)(=O)=O)ccc3c2n1CC1CCOCC1 [Example 120],melting point,246.5 to 249 °C
"CCc1nc2c(N)nc3cc(CCC#N)ccc3c2n1CC1CCOCC1 [Example 121, 3-[4-Amino-2-ethyl-1-(tetrahydro-2H-pyran-4-ylmethyl)-1H-imidazo[4,5-c]quinolin-7-yl]propanenitrile]",melting point,273 to 275 °C
"CCc1nc2c(N)nc3cc(CCC(N)=O)ccc3c2n1CC1CCOCC1 [Example 122, 3-[4-Amino-2-ethyl-1-(tetrahydro-2H-pyran-4-ylmethyl)-1H-imidazo[4,5-c]quinolin-7-yl]propanamide]",melting point,197 to 199 °C
"CCc1nc2c(N)nc3cc(CCCN)ccc3c2n1CC1CCOCC1 [Example 123, 7-(3-Aminopropyl)-2-ethyl-1-(tetrahydro-2H-pyran-4-ylmethyl)-1H-imidazo[4,5-c]quinolin-4-amine]",melting point,217 to 220 °C
